Results taken from patent publication US4089965A, “Thiazolylphenylguanidines as antirhinovirus agents” (American Cyanamid Company, priority 1977, dated 1978).

Experiments:
Experiment in all cases: Protection of tissue from cytopathic effects (plaque inhibition, filter paper disc or agar overlay)
Details in all cases: 33°, 3 to 5 days
Rhinovirus strain 2 = system: Rhinovirus strain 2
Rhinovirus strain 5 = system: Rhinovirus strain 5; note: test concentration or dose not given here
Rhinovirus strain 14 = system: Rhinovirus strain 14
Rhinovirus strain 23 = system: Rhinovirus strain 23; note: test concentration or dose not given here
Rhinovirus strain 1B = system: Rhinovirus strain 1B

Measured: Protection of tissue from destruction by virus

N=C(Nc1cccc(Cl)c1)Nc1nc(-c2ccccc2)cs1 [1-(4-phenyl-2-thiazolyl)-3-(3-chlorophenyl) guanidine]
+: Rhinovirus strain 2

N=C(Nc1ccc(C(=O)O)cc1)Nc1nc(-c2ccccc2)cs1 [1-(4-phenyl-2-thiazolyl)-3-(4-carboxyphenyl) guanidine]
+: all assays above

N=C(Nc1ccc(F)cc1)Nc1nc(-c2ccccc2)cs1 [1-(4-phenyl-2-thiazolyl)-3-(4-fluorophenyl) guanidine]
+: Rhinovirus strain 2 | Rhinovirus strain 5 | Rhinovirus strain 1B

Cc1ccc(NC(=N)Nc2nc(-c3ccccc3)cs2)cc1 [1-(4-phenyl-2-thiazolyl)-3-(p-tolyl)guanidine]
+: all assays above

COC(=O)c1ccc(NC(=N)Nc2nc(-c3ccccc3)cs2)cc1 [1-(4-phenyl-thiazolyl)-3-(4-carbomethoxyphenyl)-guanidine]
+: Rhinovirus strain 2 | Rhinovirus strain 23

Cc1ccc(NC(=N)Nc2nc(-c3ccc(Cl)cc3)cs2)cc1 [1-[4-(4-chlorophenyl)-2-thiazolyl-3-(p-tolyl)guanidine]]
+: Rhinovirus strain 2 | Rhinovirus strain 1B
